Measurements from ChEMBL document CHEMBL6109155, “Discovery of Phenylacylpiperidine as Novel sEH Inhibitors through Scaffold Hopping of Natural Stilbene” (J Med Chem, 2025).
Calls of active or inactive are those of the source. No cut-off for these calls is given here.

Assays:
[1] = tested on: Mus musculus; assay: Anti-inflammatory activity in BALB/c mouse model of carrageenan-induced paw edema assessed as inhibition of paw swelling at 20 mg/kg, po measured for 2 hrs relative to control; assay type: functional
[2] = tested on: Mus musculus; assay: Anti-inflammatory activity in BALB/c mouse model of carrageenan-induced paw edema assessed as inhibition of paw swelling at 20 mg/kg, po measured for 6 hrs relative to control; assay type: functional
[3] = tested on: Mus musculus; assay: Anti-inflammatory activity in BALB/c mouse model of carrageenan-induced paw edema assessed as inhibition of paw swelling at 20 mg/kg, po measured after 6 hrs relative to control; assay type: functional
[4] = tested on: Mus musculus; assay: Anti-inflammatory activity in BALB/c mouse model of carrageenan-induced paw edema assessed as increase in plasma 11,12-EET levels at 10 mg/kg, po measured after 6 hrs relative to control; assay type: functional
[5] = tested on: Rattus norvegicus; assay: Anti-inflammatory activity in Sprague-Dawley rat model of CFA-induced rheumatoid arthritis assessed as decrease in swelling degree of right paw at 10 mg/kg, po administered daily measured after 4 days; assay type: functional, organism-based; settings: time 4.0 day
[6] = tested on: Rattus norvegicus; assay: Anti-inflammatory activity in Sprague-Dawley rat model of CFA-induced rheumatoid arthritis assessed as decrease in arthritis index at 10 mg/kg, po administered daily measured for 7 to 19 days; assay type: functional, organism-based; settings: time 7-19 day
[7] = tested on: Rattus norvegicus; assay: Anti-inflammatory activity in Sprague-Dawley rat model of CFA-induced rheumatoid arthritis assessed as reduction in hyperplasia in synovial tissue at 10 mg/kg, po administered daily measured after 19 days by H and E staining based analysis; assay type: functional, organism-based; settings: time 19.0 day
[8] = tested on: Rattus norvegicus; assay: Anti-inflammatory activity in Sprague-Dawley rat model of CFA-induced rheumatoid arthritis assessed as […] in new blood vessel formation in synovial tissue at 10 mg/kg, po administered daily measured after 19 days by H and E staining based analysis; assay type: functional, organism-based; settings: time 19.0 day
[9] = tested on: Rattus norvegicus; assay: Anti-inflammatory activity in Sprague-Dawley rat model of CFA-induced rheumatoid arthritis assessed as BV/TV value at 10 mg/kg, po administered daily measured after 19 days by micro-CT analysis (reference value: 40.047 %); assay type: functional; settings: time 19 day
[10] = tested on: Rattus norvegicus; assay: Anti-inflammatory activity in Sprague-Dawley rat model of CFA-induced rheumatoid arthritis assessed as increase in plasma 8,9-EET level at 10 mg/kg, po administered daily measured after 19 days relative to control; assay type: functional; settings: time 19 day
[11] = tested on: Rattus norvegicus; assay: Anti-inflammatory activity in Sprague-Dawley rat model of CFA-induced rheumatoid arthritis assessed as increase in ratio of plasma 11,12-EET to DHET levels at 10 mg/kg, po administered daily measured after 19 days relative to control; assay type: functional; settings: time 19 day
[12] = tested on: Mus musculus; assay: Anti-inflammatory activity in CD-1 mouse model of cerulein-induced acute pancreatitis assessed as decrease in plasma IL-6 level at 10 mg/kg, ip drug administered at 30 mins and 2.5 hrs post-first cerulein injection and measured after 6 hrs post-first cerulein injection; assay type: functional, organism-based; settings: time 3.5-5.5 hrs
[13] = tested on: Mus musculus; assay: Analgesic effect in BALB/c mouse model of acetic acid-induced writhing assessed as reduction in number of writhing episodes at 20 mg/kg, po pretreated for 1 hr followed by acetic acid treatment and measured after 5 to 35 mins relative to control; assay type: functional; parameters: scale not given: the % may be the effect or the level left; settings: time 65-95 min
[14] = biological target: Cytochrome P450 2C9 (Homo sapiens, UniProt P11712); assay: Inhibition of CYP2C9 in human liver microsomes preincubated for 10 mins followed by NADPH addition measured after 3.5 mins by LC-MS/MS analysis; assay type: ADME, Microsome
[15] = biological target: Cytochrome P450 2C19 (Homo sapiens, UniProt P33261); assay: Inhibition of CYP2C19 in human liver microsomes preincubated for 10 mins followed by NADPH addition measured after 3.5 mins by LC-MS/MS analysis; assay type: ADME, Microsome
[16] = Cmax in plasma of C57BL/6J mouse at 20 mg/kg, po measured for 24 hrs; assay type: ADME, organism-based
[17] = Cmax in brain of C57BL/6J mouse at 20 mg/kg, po measured for 24 hrs; assay type: ADME, organism-based
[18] = AUC (0 to 24 hrs) in brain of C57BL/6J mouse at 20 mg/kg, po measured for 24 hrs; assay type: ADME, organism-based
[19] = Ratio of AUC (0 to 24 hrs) in brain to plasma in C57BL/6J mouse at 20 mg/kg, po measured for 24 hrs; assay type: ADME, organism-based; settings: brain and plasma, read-out: Ratio AUC
[20] = Ratio of Cmax in kidney to plasma in C57BL/6J mouse at 20 mg/kg, po measured for 24 hrs; assay type: ADME, organism-based; settings: kidney and plasma
[21] = Volume of distribution in Sprague-Dawley rat at 20 mg/kg, po measured for 24 hrs; assay type: ADME, organism-based; settings: in vivo
[22] = Clearance in Sprague-Dawley rat at 20 mg/kg, po measured for 24 hrs; assay type: ADME, organism-based; settings: in vivo
[23] = Half life in Sprague-Dawley rat at 5 mg/kg, iv measured for 24 hrs; assay type: ADME, organism-based; settings: in vivo
[24] = AUC (0 to 24 hrs) in Sprague-Dawley rat at 5 mg/kg, iv measured for 24 hrs; assay type: ADME, organism-based; settings: in vivo
[25] = Clearance in Sprague-Dawley rat at 5 mg/kg, iv measured for 24 hrs; assay type: ADME, organism-based; settings: in vivo
[26] = biological target: T1, Bifunctional epoxide hydrolase 2 (Mus musculus, UniProt P34914); assay: biochemical
T1 sequence (P34914 whole entry): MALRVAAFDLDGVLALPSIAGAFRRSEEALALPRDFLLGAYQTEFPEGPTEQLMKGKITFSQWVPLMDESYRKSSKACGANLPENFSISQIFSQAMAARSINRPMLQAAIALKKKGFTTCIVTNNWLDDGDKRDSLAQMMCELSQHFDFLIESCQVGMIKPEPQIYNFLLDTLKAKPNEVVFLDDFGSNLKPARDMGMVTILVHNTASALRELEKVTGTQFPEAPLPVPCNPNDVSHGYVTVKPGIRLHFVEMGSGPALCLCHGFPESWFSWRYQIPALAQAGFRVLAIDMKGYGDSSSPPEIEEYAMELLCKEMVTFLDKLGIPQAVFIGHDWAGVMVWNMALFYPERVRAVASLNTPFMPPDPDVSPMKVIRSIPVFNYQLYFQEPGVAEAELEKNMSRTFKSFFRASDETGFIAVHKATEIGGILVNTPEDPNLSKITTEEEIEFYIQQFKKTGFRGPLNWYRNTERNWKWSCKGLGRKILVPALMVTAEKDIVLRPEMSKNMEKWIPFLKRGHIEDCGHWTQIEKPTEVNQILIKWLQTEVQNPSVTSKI
Description: Inhibition of C57BL/6J mouse brain sEH using 14,15-EET as substrate preincubated for 15 mins followed by substrate addition by HPLC-MS analysis

Chain of Cytochrome P450 2C19 (P33261 whole entry): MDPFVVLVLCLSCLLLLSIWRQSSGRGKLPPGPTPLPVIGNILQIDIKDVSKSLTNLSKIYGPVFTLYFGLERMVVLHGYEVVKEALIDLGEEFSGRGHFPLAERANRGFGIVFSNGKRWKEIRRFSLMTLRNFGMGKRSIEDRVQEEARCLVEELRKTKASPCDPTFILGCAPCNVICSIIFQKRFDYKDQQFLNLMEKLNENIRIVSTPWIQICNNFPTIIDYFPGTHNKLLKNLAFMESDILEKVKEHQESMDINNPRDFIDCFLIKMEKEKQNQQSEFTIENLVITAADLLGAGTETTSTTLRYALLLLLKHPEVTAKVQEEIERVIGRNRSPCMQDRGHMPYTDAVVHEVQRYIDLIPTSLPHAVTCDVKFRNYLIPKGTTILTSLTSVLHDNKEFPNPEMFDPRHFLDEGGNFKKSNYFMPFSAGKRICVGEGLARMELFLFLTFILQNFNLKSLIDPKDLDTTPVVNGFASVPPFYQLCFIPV
Chain of Cytochrome P450 2C9 (P11712 whole entry): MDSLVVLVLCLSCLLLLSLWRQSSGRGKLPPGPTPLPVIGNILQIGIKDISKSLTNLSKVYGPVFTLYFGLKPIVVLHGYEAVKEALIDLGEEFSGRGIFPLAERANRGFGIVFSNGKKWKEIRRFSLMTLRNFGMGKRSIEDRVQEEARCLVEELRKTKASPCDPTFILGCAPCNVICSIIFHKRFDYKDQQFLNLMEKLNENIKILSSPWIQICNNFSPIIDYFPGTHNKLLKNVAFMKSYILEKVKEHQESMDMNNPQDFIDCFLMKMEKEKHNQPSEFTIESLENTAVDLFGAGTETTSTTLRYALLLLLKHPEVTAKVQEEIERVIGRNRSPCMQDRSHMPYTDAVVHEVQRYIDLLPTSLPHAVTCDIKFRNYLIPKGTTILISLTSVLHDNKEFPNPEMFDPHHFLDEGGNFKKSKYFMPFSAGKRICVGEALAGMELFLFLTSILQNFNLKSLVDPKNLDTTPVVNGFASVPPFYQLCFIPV

**Q.** Which results are given for `COc1cc(CC(=O)N2CCC(NC(=O)NCc3ccc(OC(F)(F)F)cc3)CC2)cc(OC)c1`?
**A.** inhibition in vivo at 20 mg/kg [1]: 44.6%; inhibition in vivo at 20 mg/kg [2]: 38.1%; inhibition in vivo at 20 mg/kg [3]: 38.1%; Activity [4]: 85.4%; Activity [5]: Active; Activity [6]: Active; Activity [7]: Active; Mild Hyperplasia Was Observed; Activity [8]: Active; Few Newly Formed Blood Vessels Was Observed; Activity [9]: 62.73%; Activity [10]: 105%; Activity [11]: 111%; Activity [12]: Active; Activity [13]: 42%; IC50 [14]: 48.2 µM; IC50 [15]: 9.5 µM; Cmax [16]: 482 ng/mL; Cmax [17]: 27.9 ng/g; AUC(0-t) at 24 h [18]: 11 ng·h/mL; Kp at 24 h [19]: 0.02; Kp at 24 h [20]: 9.43; Vd [21]: 74.6 L/kg; CL/F [22]: 470 mL/min/kg; half-life [23]: 25.2 min; AUC(0-t) at 24 h [24]: 2190 ng·h/mL; clearance [25]: 38.8 mL/min/kg; IC50 [26]: 0.51 nM
